Measured values reported in paper PMC5998989 (Pain Medicine: The Official Journal of the American Academy …, 2017).
Several values for one entry are separate records, joined by “and”; a condition that tells them apart may be missing. Identical values can stand only once.

Assays:
[1] = test system: cannabinoid receptors / TRPV1 receptors; settings: cited from earlier work
healthy female subjects [2] = experiment: Laser evoked potentials; format: in vivo, human; settings: for Dose at which the maximum postdose response was attained: LEP N2-P2 PtP, once daily multiple dosing; for Time to maximum response (percentage change in LEP N2-P2 PtP amplitudes): after dosing
healthy female subjects [3] = experiment: VAS pain; format: in vivo, human; settings: all subjects
[4] = Plasma pharmacokinetics after multiple ascending once daily doses; format: in vivo, human
healthy female subjects [5] = experiment: Safety and tolerability; format: in vivo, human
rats = settings: ref unpublished data; cited from earlier work
patients with PNP = settings: cited from earlier work

CCCCC/C=C\C/C=C\C/C=C\C/C=C\CCCC(=O)NCCO [AEA, N-arachidonoyl-ethanolamine]
Potency toward cannabinoid receptors relative to that toward TRPV1 receptors [1]: about 10 times

O=C(Nc1ccccc1)C1CCN(C(=O)Oc2cccnc2)CC1 [ASP8477]
Mean Difference (95% CI) vs placebo, LEP N2-P2 PtP amplitude, secondary analysis (healthy female subjects [2]; 100 mg day 21 vs placebo day 21, all subjects, session as a random effect): −1.58 (−3.30 to 0.15) µV | Mean Difference (95% CI) vs placebo, LEP N2-P2 PtP amplitude, primary analysis (healthy female subjects [2]; 100 mg day 21 vs placebo day 21, all subjects, session as replications): −1.58 (−3.30 to 0.14) µV | LS mean PtP (SE), LEP N2-P2 PtP amplitude, secondary analysis (healthy female subjects [2]; 100 mg, day 21, all subjects, linear mixed regression model with session as a random effect): 29.66 (2.80) µV | LS mean PtP (SE), LEP N2-P2 PtP amplitude, primary analysis (healthy female subjects [2]; 100 mg, day 21, all subjects, linear mixed regression model with session as replications): 28.31 (2.75) µV | Dose at which the maximum postdose response was attained (healthy female subjects [2]): 20 mg | Time to maximum response (percentage change in LEP N2-P2 PtP amplitudes) (healthy female subjects [2]): approximately one to four | Day 14 predose response for LEP N2-P2 PtP amplitudes, % of the maximum response (healthy female subjects [2]; all subjects): 4% and 8% | Day 21 predose response for LEP N2-P2 PtP amplitudes, % of the maximum response (healthy female subjects [2]; all subjects): 19% | LEP N2-P2 PtP cumulative magnitude of response (AUC) (healthy female subjects [2]; all subjects): approximately 200 | LEP N2-P2 PtP amplitudes, overall mean (healthy female subjects [2]; all subjects, across all doses): 28.51 µV | Mean difference vs placebo in LEP N2-P2 PtP amplitudes (healthy female subjects [2]; all subjects, across all doses): –1.41 µV | Day 21 predose effect for LEP N2-P2 PtP amplitudes, % of the maximum achievable effect (healthy female subjects [2]; capsaicin-positive subgroup): 40% | LEP N2-P2 PtP cumulative magnitude of response (AUC) (healthy female subjects [2]; capsaicin-positive subgroup, day 7): approximately 400 | LEP N2-P2 PtP cumulative magnitude of response (AUC) (healthy female subjects [2]; capsaicin-positive subgroup, day 14): ~420 | LEP N2-P2 PtP cumulative magnitude of response (AUC) (healthy female subjects [2]; capsaicin-positive subgroup, day 21): ~470 | Day 14 predose response for VAS pain scores, % of the maximum response (healthy female subjects [3]): 23% | Day 21 predose response for VAS pain scores, % of the maximum response (healthy female subjects [3]): 4% | Mean difference vs placebo in VAS pain score (healthy female subjects [3]; all doses): –2.55% | Mean VAS pain score (healthy female subjects [3]; all three doses (overall)): 42.23% | Dose proportionality of PK parameters ([4]; between 20 mg and 100 mg, multiple ascending doses): more than dose-proportional | Absorption following oral dosing ([4]; oral dosing): rapidly absorbed | Median tmax (range) ([4]; oral dosing, all doses): 2.1 to 4.1 h | Tolerability (healthy female subjects [5]; ascending doses of 20 mg, 60 mg, and 100 mg once daily): well tolerated | Subjects reporting a treatment-emergent adverse event (TEAE) (healthy female subjects [5]; during treatment, all doses): 83% | TEAE disorientation, subjects (healthy female subjects [5]; during treatment, all doses): 8% | TEAE disturbance in attention and illusion, subjects (healthy female subjects [5]; during treatment, all doses): 13% | TEAE dry mouth, subjects (healthy female subjects [5]; during treatment, all doses): 21% | TEAE fatigue, subjects (healthy female subjects [5]; during treatment, all doses): 29% | TEAE headache, subjects (healthy female subjects [5]; during treatment, all doses): 29% | TEAE memory impairment, subjects (healthy female subjects [5]; during treatment, all doses): 13% | TEAE vertigo, subjects (healthy female subjects [5]; during treatment, all doses): 29% | Effects in nonclinical toxicity studies (rats): effects observed on male fertility | Difference between ASP8477 and placebo (patients with PNP; double-blind randomized withdrawal period): no difference | Patients reporting a reduction of ≥30% in their pain (patients with PNP; single-blind period, 30 mg BID): ~60%

CNCC[C@H](Oc1cccc2ccccc12)c1cccs1 [duloxetine, reference compound]
Dose at which the maximum postdose response was attained (healthy female subjects [2]): 30 mg | Time to maximum response (percentage change in LEP N2-P2 PtP amplitudes) (healthy female subjects [2]): approximately one to four | Day 14 predose response for LEP N2-P2 PtP amplitudes, % of the maximum response (healthy female subjects [2]; all subjects): 26% | Day 21 predose response for LEP N2-P2 PtP amplitudes, % of the maximum response (healthy female subjects [2]; all subjects): 44% | LEP N2-P2 PtP amplitudes, overall mean (healthy female subjects [2]; all subjects, across all doses): 24.71 µV | Mean difference duloxetine vs ASP8477 in LEP N2-P2 PtP amplitudes (healthy female subjects [2]; all subjects, across all doses): –3.80 µV | Mean difference vs placebo in LEP N2-P2 PtP amplitudes (healthy female subjects [2]; all subjects, across all doses): –5.21 µV | Day 14 predose effect for LEP N2-P2 PtP amplitudes, % of the maximum achievable effect (healthy female subjects [2]; capsaicin-positive subgroup): 40% | Day 21 predose effect for LEP N2-P2 PtP amplitudes, % of the maximum achievable effect (healthy female subjects [2]; capsaicin-positive subgroup): around 40% | Time to maximum effect (healthy female subjects [2]; postdose): five | Day 14 predose response for VAS pain scores, % of the maximum response (healthy female subjects [3]): 17% | Day 21 predose response for VAS pain scores, % of the maximum response (healthy female subjects [3]): 10% | PK parameters of 60 mg compared with 30 mg ([4]; once daily for seven days): approximately doubled | TEAE fatigue, subjects (healthy female subjects [5]; during treatment, all doses): 29% | TEAE nausea, subjects (healthy female subjects [5]; during treatment, all doses): 29%
